Results from patent US20230144824A1, “1H-PYRAZOLO[4,3-d]PYRIMIDINE COMPOUNDS AS TOLL-LIKE RECEPTOR 7 (TLR7) AGONISTS” (BRISTOL-MYERS SQUIBB COMPANY, priority 2020, published 2023).

Experiments:
human TLR7 = target: T1, human TLR7 (Homo sapiens, UniProt Q9NYK1); assay: Human TLR7 agonist activity assay (HEK-Blue TLR7 SEAP reporter); format: cell-based; details: HEK-Blue TLR7 cells, 18 h treatment, average where assay performed multiple times, read-out: hTLR7 Agonism EC50
T1 construct: host or cells: HEK-Blue TLR7 cells (engineered human embryonic kidney cells)
T1 sequence (Q9NYK1 27-1049): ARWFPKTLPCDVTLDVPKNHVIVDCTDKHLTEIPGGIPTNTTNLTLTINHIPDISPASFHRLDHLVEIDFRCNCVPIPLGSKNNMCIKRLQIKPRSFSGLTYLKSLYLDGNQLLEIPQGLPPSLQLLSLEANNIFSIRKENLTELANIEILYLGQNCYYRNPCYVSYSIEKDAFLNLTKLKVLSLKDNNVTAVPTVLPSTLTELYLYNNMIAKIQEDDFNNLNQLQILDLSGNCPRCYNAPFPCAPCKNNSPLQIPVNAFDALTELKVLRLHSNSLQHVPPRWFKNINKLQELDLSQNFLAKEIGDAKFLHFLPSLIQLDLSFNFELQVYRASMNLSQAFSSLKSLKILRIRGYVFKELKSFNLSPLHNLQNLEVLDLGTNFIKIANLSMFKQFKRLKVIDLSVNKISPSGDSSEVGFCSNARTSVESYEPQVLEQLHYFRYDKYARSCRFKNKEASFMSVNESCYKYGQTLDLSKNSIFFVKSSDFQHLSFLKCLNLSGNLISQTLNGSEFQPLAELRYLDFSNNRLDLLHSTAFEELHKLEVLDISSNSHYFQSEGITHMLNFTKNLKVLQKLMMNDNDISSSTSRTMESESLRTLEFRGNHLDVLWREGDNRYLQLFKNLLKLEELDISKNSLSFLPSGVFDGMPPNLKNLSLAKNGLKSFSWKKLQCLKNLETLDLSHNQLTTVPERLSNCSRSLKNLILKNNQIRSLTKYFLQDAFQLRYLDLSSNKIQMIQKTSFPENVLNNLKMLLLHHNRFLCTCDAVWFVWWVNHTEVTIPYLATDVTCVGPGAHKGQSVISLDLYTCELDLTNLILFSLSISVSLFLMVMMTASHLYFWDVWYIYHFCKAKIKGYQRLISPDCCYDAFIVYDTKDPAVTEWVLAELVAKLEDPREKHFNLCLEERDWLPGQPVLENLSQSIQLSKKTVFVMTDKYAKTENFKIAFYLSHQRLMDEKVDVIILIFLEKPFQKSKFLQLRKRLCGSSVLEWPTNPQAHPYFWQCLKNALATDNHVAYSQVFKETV
Procedure, shortened: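 HEK-Blue TLR7 cells (15,000/well) treated with compound for 18 h at 37 °C, 5% CO2. Secreted SEAP measured with Quanti-Blue, 30 min, OD 620 nm. EC50 taken as concentration giving half-maximal response between baseline and maximum.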

CD69 = assay: Induction of CD69 in human whole blood; format: cell-based; details: Homo sapiens, 17 h, 100% set to 1 uM of resiquimod, average where assay performed multiple times, read-out: hWB CD69 EC50
Procedure: The induction of Type I interferon (IFN) MX-1 genes and the B-cell activation marker CD69 are downstream events that occur upon activation of the TLR7 pathway. The following is a human whole blood assay that measures their induction in response to a TLR7 agonist.
Heparinized human whole blood was harvested from human subjects and treated with test TLR7 agonist compounds at 1 mM. The blood was diluted with RPMI 1640 media and Echo was used to predot 10 nL per well giving a final concentration of 1 uM (10 nL in 10 uL of blood). After mixing on a shaker for 30 sec, the plates were covered and placed in a 37° C. chamber for o/n=17 hrs. Fixing/lysis buffer was prepared (5×->1× in H2O, warm at 37° C.; Cat #BD 558049) and kept the perm buffer (on ice) for later use.
For surface markers staining (CD69): prepared surface Abs: 0.045 ul hCD14-FITC (ThermoFisher Cat #MHCD1401)+0.6 ul hCD19-ef450 (ThermoFisher Cat #48-0198-42)+1.5 ul hCD69-PE (cat #BD555531)+0.855 ul FACS buffer. Added 3 ul/well, spin1000 rpm for 1 min and mixed on shaker for 30 sec, put on ice for 30 mins. Stop stimulation after 30 minutes with 70 uL of prewarmed 1× fix/lysis buffer and use Feliex mate to resuspend (15 times, change tips for each plate) and incubate at 37 C for 10 minutes.
Centrifuge at 2000 rpm for 5 minutes aspirate with HCS plate washer, mix on shaker for 30 sec and then wash with 70 uL in dPBS and pelleted 2×s (2000 rpm for 5 min) and 50 ul wash in FACS buffer pelleted 1×s (2000 rpm for 5 min). Mix on shaker for 30 sec. For Intracellular markers staining (MX-1): Add 50 ul of BD Perm buffer III and mix on shaker for 30 sec. Incubate on ice for 30 minutes (in the dark). Wash with 50 uL of FACS buffer 2×(spin @2300 rpm×5 min after perm) followed by mixing on shaker for 30 sec. Resuspended in 20 ul of FACS buffer containing MX1 antibody ( )(4812)-Alexa 647: Novus Biologicals #NBP2-43704AF647) 20 ul FACS bf+0.8 ul hIgG+0.04 ul MX-1. Spin 1000 rpm for 1 min, mix on shaker for 30 se and the samples were incubated at RT in the dark for 45 minutes followed by washing 2×FACS buffer (spin @2300 rpm×5 min after perm). Resuspend 20 ul (35 uL total per well) of FACS buffer and cover with foil and place in 4° C. to read the following day. Plates were read on iQuePlus. The results were loaded into toolset and IC50 curves are generated in curve master. The y-axis 100% is set to 1 uM of resiquimod.

Compound | EC50 (human TLR7) [nM] | EC50 (CD69) [nM]
CCC[C@@H](CCO)Nc1nc(N)nc2cnn(Cc3ncc(C4CCN(C5CCOCC5)CC4)cc3OC)c12 [Compound 127, (3S)-3-{[5-amino-1-({3-methoxy-5-[1-(oxan-4-yl)piperidin-4-yl]pyridin-2-yl}methyl)-1H-pyrazolo[4,3-d]pyrimidin-7-yl]amino}hexan-1-ol] | 12.8 | 2.7
CCCCNc1nc(N)nc2cnn(Cc3ncc(C4CCN(C(=O)CC(C)(C)O)CC4)cc3OC)c12 [Compound 110, 1-[4-(6-{[5-amino-7-(butylamino)-1H-pyrazolo[4,3-d]pyrimidin-1-yl]methyl}-5-methoxypyridin-3-yl)piperidin-1-yl]-3-hydroxy-3-methylbutan-1-one] | 343 | 382
COc1cc(C2CCN(C(=O)CCN(C)C)CC2)cnc1Cn1ncc2nc(N)nc(NCc3cc(C)on3)c21 [Compound 140, 1-(4-{6-[(5-amino-7-{[(5-methyl-1,2-oxazol-3-yl)methyl]amino}-1H-pyrazolo[4,3-d]pyrimidin-1-yl)methyl]-5-methoxypyridin-3-yl}piperidin-1-yl)-3-(dimethylamino)propan-1-one] | 530 | 128
CCC[C@@H](CCO)Nc1nc(N)nc2cnn(Cc3cnc(C4CCN(CC(C)(C)O)CC4)cc3OC)c12 [Compound 176, (3S)-3-{[5-amino-1-({6-[1-(2-hydroxy-2-methylpropyl)piperidin-4-yl]-4-methoxypyridin-3-yl}methyl)-1H-pyrazolo[4,3-d]pyrimidin-7-yl]amino}hexan-1-ol] | 4.8 | 0.21
CCC[C@@H](CCO)Nc1nc(N)nc2cnn(Cc3nc(C4CCN(C)CC4)ccc3OC)c12 [Compound 191, (3S)-3-[(5-amino-1-{[3-methoxy-6-(1-methylpiperidin-4-yl)pyridin-2-yl]methyl}-1H-pyrazolo[4,3-d]pyrimidin-7-yl)amino]hexan-1-ol] | 221 | 35.8
CCCCNc1nc(N)nc2cnn(Cc3ncc(C4CCN(C5CCOCC5)CC4)cc3OC)c12 [Compound 112, N7-butyl-1-({3-methoxy-5-[1-(oxan-4-yl)piperidin-4-yl]pyridin-2-yl}methyl)-1H-pyrazolo[4,3-d]pyrimidine-5,7-diamine] | 34 | 5.9
CCC[C@@H](CCO)Nc1nc(N)nc2cnn(Cc3ncc(C4CCN(C5COC5)CC4)cc3OC)c12 [Compound 133, (3S)-3-{[5-amino-1-({3-methoxy-5-[1-(oxetan-3-yl)piperidin-4-yl]pyridin-2-yl}methyl)-1H-pyrazolo[4,3-d]pyrimidin-7-yl]amino}hexan-1-ol] | 7.6 | 5.4
CCCCNc1nc(N)nc2cnn(Cc3ncc(C4CCN(S(C)(=O)=O)CC4)cc3OC)c12 [Compound 103, N7-butyl-1-{[5-(1-methanesulfonylpiperidin-4-yl)-3-methoxypyridin-2-yl]methyl}-1H-pyrazolo[4,3-d]pyrimidine-5,7-diamine] | 204 | 562

Second part, the molecule after the results:

EC50 (human TLR7) [nM] | EC50 (CD69) [nM] | Compound
77 | 8.7 | COc1cc(C2CCN(CCO)CC2)cnc1Cn1ncc2nc(N)nc(NCc3cc(C)on3)c21 [Compound 144, 2-(4-{6-[(5-amino-7-{[(5-methyl-1,2-oxazol-3-yl)methyl]amino}-1H-pyrazolo[4,3-d]pyrimidin-1-yl)methyl]-5-methoxypyridin-3-yl}piperidin-1-yl)ethan-1-ol]
19.9 | 10.8 | CCC[C@@H](CCO)Nc1nc(N)nc2cnn(Cc3ncc(N4CCN(CC(C)(C)O)CC4)cc3OC)c12 [Compound 172, (3S)-3-{[5-amino-1-({5-[4-(2-hydroxy-2-methylpropyl)piperazin-1-yl]-3-methoxypyridin-2-yl}methyl)-1H-pyrazolo[4,3-d]pyrimidin-7-yl]amino}hexan-1-ol]
595 | 972 | CCCCNc1nc(N)nc2c(Cl)nn(Cc3ncc(C4CCN(C5CCCC5)CC4)cc3OC)c12 [Compound 131, N7-butyl-3-chloro-1-{[5-(1-cyclopentylpiperidin-4-yl)-3-methoxypyridin-2-yl]methyl}-1H-pyrazolo[4,3-d]pyrimidine-5,7-diamine]
14.1 | 0.49 | CCC[C@@H](CCO)Nc1nc(N)nc2cnn(Cc3ncc(C4CCN(C5CC6(COC6)C5)CC4)cc3OC)c12 [Compound 148, (3S)-3-[(5-amino-1-{[3-methoxy-5-(1-{2-oxaspiro[3.3]heptan-6-yl}piperidin-4-yl)pyridin-2-yl]methyl}-1H-pyrazolo[4,3-d]pyrimidin-7-yl)amino]hexan-1-ol]
15.5 | 2 | CCC[C@@H](CCO)Nc1nc(N)nc2cnn(Cc3ncc(C4CCN(C(C)C)CC4)cc3OC)c12 [Compound 126, (3S)-3-{[5-amino-1-({3-methoxy-5-[1-(propan-2-yl)piperidin-4-yl]pyridin-2-yl}methyl)-1H-pyrazolo[4,3-d]pyrimidin-7-yl]amino}hexan-1-ol]
27.3 | 7.6 | CCCCNc1nc(N)nc2cnn(Cc3ncc(C4CCN(C5CCCC5)CC4)cc3OC)c12 [Compound 129, N7-butyl-1-{[5-(1-cyclopentylpiperidin-4-yl)-3-methoxypyridin-2-yl]methyl}-1H-pyrazolo[4,3-d]pyrimidine-5,7-diamine]
189 | 56.9 | CCC[C@@H](CCO)Nc1nc(N)nc2cnn(Cc3ncc(C4CCNCC4)cc3OC)c12 [Compound 124, (3S)-3-[(5-amino-1-{[3-methoxy-5-(piperidin-4-yl)pyridin-2-yl]methyl}-1H-pyrazolo[4,3-d]pyrimidin-7-yl)amino]hexan-1-ol]
869 | 590 | CCCCNc1nc(N)nc2c(Cl)nn(Cc3ncc(C4CCN(C5CCOCC5)CC4)cc3OC)c12 [Compound 149, N7-butyl-3-chloro-1-({3-methoxy-5-[1-(oxan-4-yl)piperidin-4-yl]pyridin-2-yl}methyl)-1H-pyrazolo[4,3-d]pyrimidine-5,7-diamine]
62 | 4.1 | COc1cc(C2CCN(C)CC2)cnc1Cn1ncc2nc(N)nc(NCC3CC4(CC4)C3)c21 [Compound 159, 1-{[3-methoxy-5-(1-methylpiperidin-4-yl)pyridin-2-yl]methyl}-N7-({spiro[2.3]hexan-5-yl}methyl)-1H-pyrazolo[4,3-d]pyrimidine-5,7-diamine]
